Several values for one entry are separate records, joined by “and”; a condition that tells them apart may be missing. Equal values may be shown once. ± gives the expanded uncertainty stated by the source.
What was measured:
[1] = 101 kPa, Liquid
[2] = refractive index (Na D-line) (dimensionless); conditions: 101.33 kPa, Liquid
[3] = relative permittivity at zero frequency (dimensionless); conditions: 101 kPa, Liquid, Dekameter

mass density ([1]; 293.15 K) [kg/m3] | mass density ([1]; 298.15 K) [kg/m3] | mass density ([1]; 303.15 K) [kg/m3] | mass density ([1]; 313.15 K) | refractive index ([2]; 293.15 K) | refractive index ([2]; 298.15 K) | refractive index ([2]; 303.15 K) | refractive index ([2]; 313.15 K) | relative permittivity at zero frequency ([3]; 293.15 K) | relative permittivity at zero frequency ([3]; 298.15 K) | relative permittivity at zero frequency ([3]; 303.15 K) | relative permittivity at zero frequency ([3]; 313.15 K) | SMILES
805.54 ± 0.46 | 802.06 ± 0.47 | 798.45 ± 0.47 | 790.07 ± 0.48 kg/m3 | 1.3992 ± 0.0012 | 1.3954 ± 0.0012 | 1.3948 ± 0.0012 | 1.391 ± 0.0012 | 17.51 ± 0.06 | 16.58 ± 0.06 | 15.75 ± 0.06 | 14.44 ± 0.06 | CCC(C)O (stereo unspecified) [butan-2-ol]
809.52 ± 0.43 | 805.58 ± 0.43 | 801.92 ± 0.44 | 794.26 ± 0.45 kg/m3 | 1.3992 ± 0.0012 | 1.3972 ± 0.0012 | 1.3963 ± 0.0012 | 1.392 ± 0.0012 | 18.26 ± 0.06 | 17.54 ± 0.06 | 16.89 ± 0.06 | 15.45 ± 0.06 | CCCCO [butan-1-ol]

SMILES | mass density ([1]; 293.15 K) [kg/m3] | mass density ([1]; 298.15 K) [kg/m3] | mass density ([1]; 303.15 K) [kg/m3] | mass density ([1]; 313.15 K) | refractive index ([2]; 293.15 K) | refractive index ([2]; 298.15 K) | refractive index ([2]; 303.15 K) | refractive index ([2]; 313.15 K) | relative permittivity at zero frequency ([3]; 293.15 K) | relative permittivity at zero frequency ([3]; 298.15 K) | relative permittivity at zero frequency ([3]; 303.15 K) | relative permittivity at zero frequency ([3]; 313.15 K)
O=C1CCCO1 [γ-butyrolactone] | 1128.79 ± 0.58 | 1123.75 ± 0.57 | 1118.79 ± 0.56 | 1121.76 ± 0.56 kg/m3 and 1108.88 ± 0.54 kg/m3 | 1.437 ± 0.0013 | 1.4356 ± 0.0013 | 1.4334 ± 0.0013 | 1.429 ± 0.0013 | 42.34 ± 0.06 and 42.81 ± 0.06 | 41.64 ± 0.06 | 41.1 ± 0.06 | 39.92 ± 0.06
